In PubChem BioAssay (NCI):
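Where inhibition never reached the appropriate level, the endpoint shown equals the highest concentration tested. Otherwise, values were interpolated linearly from a five-concentration, 48-hour dose response in 96-well plates. Here, GI50 denotes the concentration required for 50% inhibition of growth. TGI marks complete inhibition of growth.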

What was measured:
Assay in all cases: inhibition of tumour cell growth, NCI panel, 48 h
786-0 renal = system: 786-0 renal
A498 renal = system: A498 renal
A549 NSCLC = system: A549 NSCLC
ACHN renal = system: ACHN renal
CAKI-1 renal = system: CAKI-1 renal
COLO 205 colon = system: COLO 205 colon
DU-145 prostate = system: DU-145 prostate
EKVX NSCLC = system: EKVX NSCLC
HCC-2998 colon = system: HCC-2998 colon
HCT-116 colon = system: HCT-116 colon
HCT-15 colon = system: HCT-15 colon
HL-60(TB) leukemia = system: HL-60(TB) leukemia
HOP-62 NSCLC = system: HOP-62 NSCLC
HOP-92 NSCLC = system: HOP-92 NSCLC
HS 578T breast = system: HS 578T breast
HT29 colon = system: HT29 colon
IGROV1 ovarian = system: IGROV1 ovarian
K-562 leukemia = system: K-562 leukemia
KM12 colon = system: KM12 colon
LOX IMVI melanoma = system: LOX IMVI melanoma
M14 melanoma = system: M14 melanoma
MALME-3M melanoma = system: MALME-3M melanoma
MCF7 breast = system: MCF7 breast
MDA-MB-231 breast = system: MDA-MB-231 breast
MDA-MB-435 = system: MDA-MB-435
MDA-N = system: MDA-N
MOLT-4 leukemia = system: MOLT-4 leukemia
NCI-H226 lung = system: NCI-H226 lung
NCI-H23 lung = system: NCI-H23 lung
NCI-H460 lung = system: NCI-H460 lung
NCI-H522 lung = system: NCI-H522 lung
NCI/ADR-RES ovarian = system: NCI/ADR-RES ovarian
OVCAR-3 ovarian = system: OVCAR-3 ovarian
OVCAR-4 ovarian = system: OVCAR-4 ovarian
OVCAR-5 ovarian = system: OVCAR-5 ovarian
PC-3 prostate = system: PC-3 prostate
RPMI-8226 leukemia = system: RPMI-8226 leukemia
RXF 393 renal = system: RXF 393 renal
SF-268 CNS = system: SF-268 CNS
SF-295 CNS = system: SF-295 CNS
SF-539 CNS = system: SF-539 CNS
SK-MEL-2 melanoma = system: SK-MEL-2 melanoma
SK-MEL-28 melanoma = system: SK-MEL-28 melanoma
SK-MEL-5 melanoma = system: SK-MEL-5 melanoma
SK-OV-3 ovarian = system: SK-OV-3 ovarian
SN12C renal = system: SN12C renal
SNB-19 CNS = system: SNB-19 CNS
SR leukemia = system: SR leukemia
SW-620 colon = system: SW-620 colon
T-47D breast = system: T-47D breast
TK-10 renal = system: TK-10 renal
U251 CNS = system: U251 CNS
UACC-257 melanoma = system: UACC-257 melanoma
UACC-62 melanoma = system: UACC-62 melanoma
UO-31 renal = system: UO-31 renal
BT-549 breast = system: BT-549 breast
CCRF-CEM leukemia = system: CCRF-CEM leukemia
OVCAR-8 ovarian = system: OVCAR-8 ovarian
SNB-75 CNS = system: SNB-75 CNS

Compound: O=C(/C=C/c1ccc(O)c(O)c1)OCc1ccccc1
- TGI (786-0 renal): 84.3 µM
- TGI (A498 renal): 50.5 µM
- TGI (A549 NSCLC): 62.1 µM
- TGI (ACHN renal): 40.7 µM
- TGI (CAKI-1 renal): 67.3 µM
- TGI (COLO 205 colon): 70.9 µM
- TGI (DU-145 prostate): 39.5 µM
- TGI (EKVX NSCLC): > 100 µM
- TGI (HCC-2998 colon): > 100 µM
- TGI (HCT-116 colon): 30.5 µM
- TGI (HCT-15 colon): > 100 µM
- TGI (HL-60(TB) leukemia): 4.66 µM
- TGI (HOP-62 NSCLC): 72.4 µM
- TGI (HOP-92 NSCLC): 58 µM
- TGI (HS 578T breast): > 100 µM
- TGI (HT29 colon): > 100 µM
- TGI (IGROV1 ovarian): 13.5 µM
- TGI (K-562 leukemia): 61 µM
- TGI (KM12 colon): > 100 µM
- TGI (LOX IMVI melanoma): 71.6 µM
- TGI (M14 melanoma): 48.2 µM
- TGI (MALME-3M melanoma): 80.4 µM
- TGI (MCF7 breast): 37.9 µM
- TGI (MDA-MB-231 breast): 67.1 µM
- TGI (MDA-MB-435): 97.3 µM
- TGI (MDA-N): > 100 µM
- TGI (MOLT-4 leukemia): 39.1 µM
- TGI (NCI-H226 lung): > 100 µM
- TGI (NCI-H23 lung): 60.3 µM
- TGI (NCI-H460 lung): > 100 µM
- TGI (NCI-H522 lung): 7.77 µM
- TGI (NCI/ADR-RES ovarian): 72.2 µM
- TGI (OVCAR-3 ovarian): > 100 µM
- TGI (OVCAR-4 ovarian): 79.2 µM
- TGI (OVCAR-5 ovarian): > 100 µM
- TGI (PC-3 prostate): 85.1 µM
- TGI (RPMI-8226 leukemia): 32.2 µM
- TGI (RXF 393 renal): 65.4 µM
- TGI (SF-268 CNS): 45.8 µM
- TGI (SF-295 CNS): 57.4 µM
- TGI (SF-539 CNS): 24.5 µM
- TGI (SK-MEL-2 melanoma): 82 µM
- TGI (SK-MEL-28 melanoma): 61.3 µM
- TGI (SK-MEL-5 melanoma): 24.3 µM
- TGI (SK-OV-3 ovarian): 67.4 µM
- TGI (SN12C renal): 51.8 µM
- TGI (SNB-19 CNS): 97.6 µM
- TGI (SR leukemia): 19.7 µM
- TGI (SW-620 colon): > 100 µM
- TGI (T-47D breast): 73.8 µM
- TGI (TK-10 renal): 54.3 µM
- TGI (U251 CNS): 49.6 µM
- TGI (UACC-257 melanoma): 59.1 µM
- TGI (UACC-62 melanoma): 53.9 µM
- TGI (UO-31 renal): 51.1 µM

Compound: CCN1C(=O)N(CC)C2C1NN=c1s/c(=C\c3ccccc3F)c(=O)n12 (centres undefined)
- GI50 (786-0 renal): 0.061 µM
- TGI (786-0 renal): 52.8 µM
- GI50 (A498 renal): 0.0154 µM
- TGI (A498 renal): 0.064 µM
- GI50 (A549 NSCLC): 0.0419 µM
- TGI (A549 NSCLC): > 100 µM
- GI50 (ACHN renal): 0.0522 µM
- TGI (ACHN renal): > 100 µM
- GI50 (BT-549 breast): 0.0358 µM
- TGI (BT-549 breast): > 93.3 µM
- GI50 (CAKI-1 renal): 0.0323 µM
- TGI (CAKI-1 renal): > 100 µM
- GI50 (CCRF-CEM leukemia): 0.0386 µM
- TGI (CCRF-CEM leukemia): > 100 µM
- GI50 (COLO 205 colon): 0.0271 µM
- TGI (COLO 205 colon): 0.0737 µM
- GI50 (DU-145 prostate): 0.0398 µM
- TGI (DU-145 prostate): > 100 µM
- GI50 (EKVX NSCLC): 0.0481 µM
- TGI (EKVX NSCLC): > 100 µM
- GI50 (HCC-2998 colon): 0.0334 µM
- TGI (HCC-2998 colon): > 58.8 µM
- GI50 (HCT-116 colon): 0.0333 µM
- TGI (HCT-116 colon): 14.3 µM
- GI50 (HCT-15 colon): 0.0316 µM
- TGI (HCT-15 colon): > 100 µM
- GI50 (HL-60(TB) leukemia): 0.0239 µM
- TGI (HL-60(TB) leukemia): 0.0607 µM
- GI50 (HOP-62 NSCLC): 0.0545 µM
- TGI (HOP-62 NSCLC): > 100 µM
- GI50 (HOP-92 NSCLC): 1.11 µM
- TGI (HOP-92 NSCLC): 69 µM
- GI50 (HS 578T breast): 0.0345 µM
- TGI (HS 578T breast): > 100 µM
- GI50 (HT29 colon): 0.0319 µM
- GI50 (IGROV1 ovarian): 0.0512 µM
- TGI (IGROV1 ovarian): > 43.4 µM
- GI50 (K-562 leukemia): 0.0301 µM
- TGI (K-562 leukemia): > 100 µM
- GI50 (KM12 colon): 0.0278 µM
- TGI (KM12 colon): > 48.9 µM
- GI50 (LOX IMVI melanoma): 0.0411 µM
- TGI (LOX IMVI melanoma): > 100 µM
- GI50 (M14 melanoma): 0.0311 µM
- TGI (M14 melanoma): > 100 µM
- GI50 (MALME-3M melanoma): 15.4 µM
- TGI (MALME-3M melanoma): > 100 µM
- GI50 (MCF7 breast): 0.0325 µM
- TGI (MCF7 breast): > 63.6 µM
- GI50 (MDA-MB-231 breast): 0.0457 µM
- TGI (MDA-MB-231 breast): > 84.6 µM
- GI50 (MDA-MB-435): 0.0148 µM
- TGI (MDA-MB-435): 0.052 µM
- GI50 (MOLT-4 leukemia): 0.0419 µM
- TGI (MOLT-4 leukemia): > 100 µM
- GI50 (NCI-H226 lung): 11.2 µM
- TGI (NCI-H226 lung): > 100 µM
- GI50 (NCI-H23 lung): 0.0641 µM
- TGI (NCI-H23 lung): > 100 µM
- GI50 (NCI-H460 lung): 0.0355 µM
- TGI (NCI-H460 lung): > 40.6 µM
- GI50 (NCI-H522 lung): 0.0192 µM
- TGI (NCI-H522 lung): 1.3 µM
- GI50 (NCI/ADR-RES ovarian): 0.0296 µM
- TGI (NCI/ADR-RES ovarian): > 63.6 µM
- GI50 (OVCAR-3 ovarian): 0.0282 µM
- TGI (OVCAR-3 ovarian): 0.0789 µM
- GI50 (OVCAR-4 ovarian): 0.0668 µM
- TGI (OVCAR-4 ovarian): > 100 µM
- GI50 (OVCAR-5 ovarian): 0.0628 µM
- TGI (OVCAR-5 ovarian): > 100 µM
- GI50 (OVCAR-8 ovarian): 0.0357 µM
- GI50 (PC-3 prostate): 0.04 µM
- TGI (PC-3 prostate): > 100 µM
- GI50 (RPMI-8226 leukemia): 0.0415 µM
- TGI (RPMI-8226 leukemia): > 37.7 µM
- GI50 (RXF 393 renal): 0.0224 µM
- TGI (RXF 393 renal): 1.36 µM
- GI50 (SF-268 CNS): 0.0679 µM
- TGI (SF-268 CNS): > 67.4 µM
- GI50 (SF-295 CNS): 0.0242 µM
- TGI (SF-295 CNS): > 49.8 µM
- GI50 (SF-539 CNS): 0.0236 µM
- TGI (SF-539 CNS): 0.0696 µM
- GI50 (SK-MEL-2 melanoma): 0.0489 µM
- TGI (SK-MEL-2 melanoma): > 38.9 µM
- GI50 (SK-MEL-28 melanoma): 62.4 µM
- TGI (SK-MEL-28 melanoma): > 100 µM
- GI50 (SK-MEL-5 melanoma): 0.0289 µM
- TGI (SK-MEL-5 melanoma): 0.203 µM
- GI50 (SK-OV-3 ovarian): 0.054 µM
- TGI (SK-OV-3 ovarian): 77.5 µM
- GI50 (SN12C renal): 0.0522 µM
- TGI (SN12C renal): > 100 µM
- GI50 (SNB-19 CNS): 0.0489 µM
- TGI (SNB-19 CNS): > 100 µM
- GI50 (SNB-75 CNS): 0.0133 µM
- TGI (SNB-75 CNS): 0.0711 µM
- GI50 (SR leukemia): 0.0278 µM
- TGI (SR leukemia): > 74.7 µM
- GI50 (SW-620 colon): 0.0379 µM
- TGI (SW-620 colon): > 100 µM
- GI50 (T-47D breast): 35.7 µM
- TGI (T-47D breast): > 100 µM
- GI50 (TK-10 renal): 1.68 µM
- TGI (TK-10 renal): > 63.6 µM
- GI50 (U251 CNS): 0.0354 µM
- TGI (U251 CNS): > 100 µM
- GI50 (UACC-257 melanoma): 2.11 µM
- TGI (UACC-257 melanoma): > 100 µM
- GI50 (UACC-62 melanoma): 0.0505 µM
- TGI (UACC-62 melanoma): > 80.4 µM
- GI50 (UO-31 renal): 0.17 µM
- TGI (UO-31 renal): > 69.4 µM
